Assay results from patent US8278359B2, “Compositions containing amines and use thereof to treat acne or reduce the appearance of oil or pores on the skin” (Johnson & Johnson Consumer Companies, Inc., priority 2005, dated 2012).

Experiments:
Human keratinocytes = experiment: Electric Cell-substrate Impedance Sensing (ECIS) capacitance, keratinocyte contraction; format: cell-based; conditions: capacitance integrated over 5 hrs, 40,000 Hz, pH 7.2-7.3
Text: Electrical changes due to the presence of a cell layer can be used to calculate cell morphological parameters including the barrier function of the cell layer (the spacing between the ventral side of the cell and the substratum) and the cell membrane capacitance (Giaever and Keese, Proceedings of National Academy of Sciences 88, 7896, 1991).
Current flowing between a reference electrode, onto which cells or cell cultures may be attached, and a larger counter electrode using normal culture medium as the electrolyte can be used to detect changes in cell morphological parameters. In the absence of cells on the electrode, the current flows unrestrained from the surface of the electrodes. In the presence of cells attached and spread upon the electrode, the current must now flow in the spaces under and between the cells, as the cell membrane act as insulators.
The electrical changes of living, viable cells can be sampled rapidly, in real time, over an extended period of time, and the measurements are the measurement is non-invasive. An example of this technology is the Electric Cell-substrate Impedance Sensing System (ECIS) available from Applied Biophysics (Troy, N.Y.). […]
Human keratinocytes and Epilife culture media (Cascade Biologics, Portland, Oreg.) were cultured at 37° C. in a humidified atmospheres of 5% CO2/95% air. […] Capacitance changes (in nanofarads, nF) of keratinocytes were measured using a Electric Cell-substrate Impedance Sensing System (ECIS) Model 1600R (Applied Biophysics, Troy, N.Y.) using the method of Wegener and co-workers (Wegener J, Keese C R, Giaever I, Exp Cell Res. 259:158-166, 2000) at a frequency of 40,000 Hz. Capacitance readings are inversely related to the contact area of a cell onto the ECIS electrode array, the greater the cell area contacting the electrode the smaller the capacitance readings (Wegener J, Keese C R, Giaever I, Exp Cell Res. 259:158-166, 2000). Conversely as a cell contracts or shrinks, the contact area of the cell onto the ECIS electrode array decreases, resulting in an increase in the capacitance readings. […]

IFN (interferon-gamma) = experiment: PHA-stimulated peripheral blood lymphocyte cytokine release: IFN; format: cell-based; conditions: Homo sapiens, 48 h, read-out: IFN % inh.
Text: The ability of various amines to affect the inflammatory responses was illustrated by its ability to reduce the production of cytokines by human lymphocytes stimulated with the T-cell receptor (TCR) activating agent phytohaemagglutinin (PHA) in the following assay.
Human leukocytes were collected from a healthy adult […] via leukopheresis, and adjusted to a density Of 1×10^6 cells/mL in serum free lymphocyte growth medium (ExVivo-15, Biowhittaker, Walkersville, Md.). PBLs were stimulated with 10 μg/mL PHA in the presence or absence of test samples following published methods (Hamamoto Y., et al. Exp Dermatol 2:231-235, 1993). The following compounds were evaluated N,N,N′,N′-Tetrakis(2-hydroxypropyl)ethylenediamine (THPED, available from BASF under the tradename “Quadrol” or “Neutrol”), N,N,N,N-Tetramethylethylenediamine (TEMED, available from Pfaltz & Bauer Chemicals (Waterbury, Conn.)), and Diethylenetriamine (available from Sigma-Aldrich) Following a 48 hour incubation at 37° C. with 5% CO2, the supernatant was removed and evaluated for cytokine content using commercially available multiplex cytokine detection kit.

IL-1A = experiment: UV-induced IL-1A release on reconstituted epidermis (EPI 200 HCF epidermal equivalents); format: cell-based, human; conditions: 0.5% w/v topical
Protocol: The effect of diamines was evaluated for topical anti-inflammatory activity on human epidermal equivalents. Epidermal equivalents (EPI 200 HCF), multilayer and differentiated epidermis consisting of normal, human epidermal keratinocytes, were purchased from MatTek (Ashland, Mass.). Upon receipt, epidermal equivalents were incubated for 24 hours at 37° C. in maintenance medium without hydrocortisone. Equivalents were topically treated (2 mg/cm^2) with compounds in 70% ethanol/30% propylene glycol vehicle at the indicated concentration 2 hours before exposure to solar ultraviolet light (1000 W-Oriel solar simulator equipped with a 1-mm Schott WG 320 filter; UV dose applied: 70 kJ/m^2 as measured at 360 nm). Equivalents were incubated for 24 hours at 37° C. with maintenance medium then supernatants were analyzed for IL-1A cytokine release using commercially available kits (Upstate Biotechnology, Charlottesville, Va.).

CC(O)CN(CCN(CC(C)O)CC(C)O)CC(C)O (stereo not shown) [THPED, N,N,N′,N′-Tetrakis(2-hydroxypropyl)ethylenediamine]
Electrical Capacitance Contraction of Human Keratinocytes (AUC, Mean ± Std Dev) (Human keratinocytes; 0.01% V/V): 29.2 ± 3.2 | Electrical Capacitance Contraction of Human Keratinocytes (AUC, Mean ± Std Dev) (Human keratinocytes; 0.05% V/V): 35.1 ± 5.3 | Electrical Capacitance Contraction of Human Keratinocytes (AUC, Mean ± Std Dev) (Human keratinocytes; 0.1% V/V): 44.5 ± 9.1 | inhibition at 10 µg/mL (IFN (interferon-gamma)): 18.1% | inhibition at 100 µg/mL (IFN (interferon-gamma)): 37.9% | Mean +/− Std Dev of IL-1A Release (IL-1A; 2 hours before UV (70 kJ/m^2), 24 hours after): 357.3 ± 92.1 ng/mL | inhibition at 0.5 % strength (IL-1A; Homo sapiens, 2 hours before UV, vs UV, Vehicle, read-out: Percent Inhibition of Skin Inflammation): 0%
